Target: T1, VDR (Homo sapiens, UniProt P11473)
T1 sequence (P11473 1-427): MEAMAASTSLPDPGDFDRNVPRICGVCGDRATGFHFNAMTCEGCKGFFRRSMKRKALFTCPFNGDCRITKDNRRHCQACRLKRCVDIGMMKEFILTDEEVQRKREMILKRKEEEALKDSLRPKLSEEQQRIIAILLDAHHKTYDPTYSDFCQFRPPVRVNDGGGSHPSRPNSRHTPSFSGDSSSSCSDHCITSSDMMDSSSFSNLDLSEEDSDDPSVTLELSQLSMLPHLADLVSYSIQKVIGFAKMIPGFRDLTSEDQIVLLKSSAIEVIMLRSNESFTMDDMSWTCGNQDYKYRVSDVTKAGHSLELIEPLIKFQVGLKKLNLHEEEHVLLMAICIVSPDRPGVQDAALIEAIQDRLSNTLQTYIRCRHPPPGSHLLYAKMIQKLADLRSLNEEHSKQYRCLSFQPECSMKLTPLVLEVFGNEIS
Test: ΔSV-CAT reporter cotransfection assay in CV-1 cells with VDR expression plasmid, ±VD3
Type: cell-based
Design: expressed in transfected cells; host or cells: CV-1 (monkey kidney)
Conditions: VD3 100 nM
Description: Receptor expression plasmids used in the following cotransfection assays have been described previously (pRShTRβ [see Thompson, et al., Proc. Natl. Acad. Sci. U.S.A. 86: 3494-3498 (1989)]; pRShRARα [see Giguere, et al., Nature 330: 624-629 (1987)]; pRShRARβ and pRshRARγ [see Ishikawa, et al., Mol. Endocrinol, 4: 837-844 (1990)]; and pRShVDR, [Schule, et al., Cell 61: 497-504 (1990)]. A basal reporter plasmid ΔSV-CAT was constructed by replacing the TK promoter in TK-CAT [Damm, et al., Nature 339: 593-597 (1989)] with the SphI-HindIII fragment of the SV40 early promoter. All of the recombinant CAT reporter plasmids used herein harbor a single copy of the indicated oligonucleotides at the unique HindIII site upstream of the SV40 promoter. Identity of the inserted oligonucleotides was confirmed by sequencing. To improve production of receptor proteins in COS cells, a new eukaryotic expression vector pCMX was prepared by modifying the plasmid CDM8 [Seed, B., Nature 329: 840-842 (1987)]. The CDM8 was cut with MluI and StuI in order to release the DNA fragment encoding the CMV/T7 promoter, SV40 small t intron/poly A signal, polyoma virus enhancer/origin, and SV40 enhancer/origin. The resulting fragment was ligated to a larger fragment of PvuII-digested PUC19. An internal deletion was introduced between unique BamHI and BclI sites present in the DCM8 portion. […]

Substance | vitamin D3 response (in words)
GDR-3: identical to DR-3 except half-site changed to AGAACA, a GRE half-site (SEQ ID NO:26) (AGCTTCAGAACAAGGAGAACAGAGAGCT; DNA, backbone not given here; double-stranded DNA response element with agct overhangs, cloned into reporter) | completely inactive
GDR-4: identical to DR-4 except half-site changed to AGAACA, a GRE half-site (SEQ ID NO:28) (AGCTTCAGAACACAGGAGAACAGAGAGCT; DNA, backbone not given here; double-stranded DNA response element with agct overhangs, cloned into reporter) | completely inactive
